Experimental data reported in patent US20240166641A1, “HETEROCYCLES AND USES THEREOF” (Kumquat Biosciences Inc., priority 2021, published 2024).

Columns and labels:
PTPN2 = target: T1, PTPN2 (Homo sapiens, UniProt P17706); assay: Phosphatase activity assay (Bio-Biochem-DiFMUP), PTPN2; format: biochemical; conditions: DiFMUP substrate, room temperature
T1 sequence (P17706 1-415): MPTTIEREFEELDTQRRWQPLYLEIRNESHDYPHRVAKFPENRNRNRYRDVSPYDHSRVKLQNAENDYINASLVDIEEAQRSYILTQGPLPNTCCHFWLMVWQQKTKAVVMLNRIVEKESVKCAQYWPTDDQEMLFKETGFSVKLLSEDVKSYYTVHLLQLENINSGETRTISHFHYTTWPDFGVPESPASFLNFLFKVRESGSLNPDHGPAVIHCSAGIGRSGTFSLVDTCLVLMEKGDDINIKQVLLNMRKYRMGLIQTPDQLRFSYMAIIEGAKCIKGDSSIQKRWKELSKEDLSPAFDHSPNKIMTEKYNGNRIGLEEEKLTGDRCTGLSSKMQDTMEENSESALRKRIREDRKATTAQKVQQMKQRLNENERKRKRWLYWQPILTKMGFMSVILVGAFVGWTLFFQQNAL
How it was run: (§1)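 Buffer was 50 mM Bis-Tris pH 6.3, 2 mM EDTA, 5 mM DMH, with 10 μM FDP or DiFMUP substrate, enzyme added last, at room temperature. Fluorescent product was read continuously for 15–30 min (DiFMU ex 360/em 450 nm; FMP ex 440/em 530 nm). Initial rates against 10-point inhibitor series were fitted with a 4-parameter equation to give IC50.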

PTP1B = target: T2, PTP1B (Homo sapiens, UniProt P18031); assay: Phosphatase activity assay (Bio-Biochem-DiFMUP), PTP1B; format: biochemical; conditions: DiFMUP substrate, room temperature
T2 sequence (P18031 1-435): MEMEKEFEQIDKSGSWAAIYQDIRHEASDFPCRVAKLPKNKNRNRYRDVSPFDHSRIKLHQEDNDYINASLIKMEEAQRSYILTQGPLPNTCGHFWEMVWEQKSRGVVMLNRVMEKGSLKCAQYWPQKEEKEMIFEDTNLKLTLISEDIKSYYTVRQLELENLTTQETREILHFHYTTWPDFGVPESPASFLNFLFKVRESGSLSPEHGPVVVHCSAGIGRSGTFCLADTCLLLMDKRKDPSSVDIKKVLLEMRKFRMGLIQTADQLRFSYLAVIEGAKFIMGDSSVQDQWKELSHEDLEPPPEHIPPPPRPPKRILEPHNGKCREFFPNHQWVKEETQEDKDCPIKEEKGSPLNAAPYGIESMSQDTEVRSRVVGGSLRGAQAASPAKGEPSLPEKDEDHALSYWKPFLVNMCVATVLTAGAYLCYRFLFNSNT
How it was run: as §1

mouse C57BL/6 T cells = assay: pSTAT1 signaling in IFNα-stimulated T cells, flow cytometry; format: cell-based; conditions: T-cell, 10 uM compound, T cells stimulated for 5 hours by IFNα, read-out: % pSTAT1 in cells treated with subject compounds relative to negative control (DMSO)
Protocol: IFNα signaling in mouse C57BL/6 T cells promotes activation of multiple signaling pathways associated with antitumor responses. A key target of this signaling is phosphorylation of the transcription factor STAT1. […] T cells are stimulated for 5 hours by IFNα in the presence or absence of exemplified compounds disclosed herein (e.g., PTPN2 inhibitors) and stained intracellularly with antibodies for phosphorylated STAT1 and then analyzed by flow cytometry. Enhancement of phosphorylation of STAT1 is read out as a percentage over the DMSO control.

[1] = tested on: C57B3L/6 mouse primary T cells; assay: T-cell activation: CD25 expression on primary T cells stimulated with anti-CD3/CD28; format: cell-based; conditions: 10 uM compound, primary T cells stimulated with antibodies to CD3 and CD28
Protocol: The increase of T cell activation and most importantly T cell function is a strategy for novel immune oncology approaches to promote tumor immunity. In vitro assays using wildtype C57B3L/6 mouse primary T cells are commonly used to assess the impact of compound on T cell activation and function. To assess the ability of compounds disclosed here (e.g., PTPN2 inhibitors) to stimulate T cell activation, primary T cells stimulated with antibodies to CD3 and CD28 are treated with or without exemplary compounds (at 10 uM) disclosed herein are stained with antibodies directed to T-cell activation markers, such as CD25. Additional markers including without limitation CD69, SLAMF6, TIM3, and PD1 can also be employed as a proxy for T cell activation.

B16F10 cells [2] = assay: In vivo efficacy in B16F10 mouse tumor model; conditions: B16F10 in female C57BL/6 mice, oral BID, 100 or 300 mg/kg/dose
Protocol: Cells are grown to passage 3 in vitro. A total of 1 to 5×10^5 viable B16F10 cells are inoculated subcutaneously into the right flank of female C57BL/6 mice (7-12 weeks old) on Day 0. The injection volume is 0.1 mL and is composed of a 1: 1 mixture of S-MEM and Matrigel® (Corning, NY, USA). The mean tumor volume (TV) at randomization is approximately 100-200 mm^3. Following randomization, treatments are initiated on the same day. Dosing of mice is conducted orally, twice a day (BID). Mice are dosed (100 mg/kg/dose or 300 mg/kg/dose) with a compound described herein or vehicle controls. Tumor volume is calculated three times weekly. Measurements of the length (L) and width (W) of the tumor are taken via electronic caliper and the volume is calculated according to the following equation: V=L×W^2/2. Tumor growth inhibition (TGI) is calculated as TGI=1−(Mean TV Timepoint(Treatment)/MeanTV Timepoint (Vehicle)) for each timepoint that tumor volumes are measured and depicted in FIG. 3.

[3] = mouse PK PO (oral pharmacokinetics, Compound A vs. Reference CMPD); format: in vivo; conditions: identical oral dosing
Protocol: (§2) Furthermore, an AUCfinal for Compound A was measured to be 356% that of the Reference CMPD measured in the same manner and at the same time in the same mouse model. […] Furthermore, an AUCfinal for Compound A was measured to be 224% that of the Reference CMPD measured in the same manner and at the same time in the same rat model.

[4] = Rat PK PO (oral pharmacokinetics, Compound A vs. Reference CMPD); format: in vivo; conditions: identical oral dosing
Protocol: as §2

B16F10 cells [5] = assay: Tumor infiltrating lymphocyte exhaustion assay; format: in vivo, mouse; conditions: Day 7 post dosing, B16F10 tumors in C57BL/6 mice
Text: The same mouse model is utilized to assess the amount of tumor infiltrating lymphocytes when treated with or without an exemplary compound A of the present disclosure. C57BL/6 mice were implanted with 5*10^5 B16F10 cells formulated in Matrigel via the subcutaneous route. After tumors reached a size of 50-150 mm^3, mice were randomized. 7 days post randomization, tumor cells were processed on a GentleMACS octo dissociator and stained for exhaustion markers using a panel of antibodies: Live/Dead, CD45.1, CD8, TIM-3, PD-1, SLAMF6, CD11b, CD38. In parallel, splenocytes were stained with the same cocktail of antibodies and analyzed by flow cytometry. […] PTPN2 inhibitors are tested in the described TIL exhaustion assay to measure modulation of exhaustion in the tumor microenvironment.

[6] = tested on: B16F10 mouse melanoma cells; assay: MHC expression associated with IFNγ signaling, flow cytometry; format: cell-based; conditions: B16-F10, 3 uM compound, 48 hours, normalized to DMSO/with IFNγ control, read-out: % MHC in cells treated with Compound at 3 uM relative to negative control (DMSO)
Protocol: B16F10 mouse melanoma cells (ATCC Cat #CRL-6475, Manassas, VA) are seeded at approximately a density of 500 cells per well in a 384-well clear bottom plate (Corning Cat #3765, Corning, 5 NY) in 25 μL total volume of DMEM+10% FBS (Sigma Cat #D6429 and Sigma Cat #F4135, St. Louis, MO). Cells are allowed to adhere overnight at 37° C.+5% CO2. On the following day, 12.5 μL of mouse IFNγ (RD systems Cat #485-MI/CF, Minneapolis, MN) is added to half of the plate (columns 13-24) at a concentration of 2 ng/mL for a final assay concentration of 0.5 ng/mL of IFNγ. Media only (12.5 μL of DMEM+10% FBS) is added to the remainder of the 10 plate (columns 1-12). Next, compounds resuspended in DMSO (Sigma Cat #D2650) at 100 mM are diluted in semi-log dilutions in DMSO ranging from 100 mM to 0.001 mM and DMSO only controls are included. The compound/DMSO dilutions are further diluted 1:250 in DMEM+10% FBS, and 12.5 μL of these dilutions are added in triplicates to cells of both treatment arms (with and without IFNγ). Compounds are only dosed in the inner 240 wells, avoiding the outer 2-well perimeter of the plate to minimize edge effects. Finally, the plate is loaded into an IncuCyte® S3 Live Cell Analysis System (Essen Bioscience-Sartorius, Ann Arbor, MI) maintained in a 37° C.+5% CO2 incubator, allowed to equilibrate for 2 hours, and treated for 48 hours. MHC levels are measured by flow cytometry using a FITC anti-mouse H-2kb antibody (clone AF6-88.5), and levels are normalized based on DMSO/with IFNγ control. Table 7 below summarizes the percentage in MHC expression in cells treated with or without compounds disclosed herein at a specified concentration.

[7] = mouse PK PO, relative to Reference CMPD of WO2019/246513
[8] = Rat PK PO, relative to Reference CMPD of WO2019/246513

SMILES	IC50 (PTPN2)	IC50 (PTP1B)	activity at 10 µM (mouse C57BL/6 T cells)	% CD25 expression in cells treated with subject compounds relative to negative control (DMSO) [1]	further results
CC(C)Oc1ccc2cc(O)c(N3CC(=O)NS3(=O)=O)c(F)c2n1 [Compound 192]	≤ 1000 nM	≤ 1000 nM	183%	375%	
O=C1CN(c2c(O)cc3ccc(OC4CCC4)nc3c2F)S(=O)(=O)N1 [Compound 205]	≤ 1000 nM	≤ 1000 nM		423%	
COc1ccc2cc(O)c(N3CC(=O)NS3(=O)=O)c(F)c2n1 [Compound A]					Tumor volume / tumor growth inhibition (FIG. 3) (B16F10 cells [2]): apparent tumor stasis and shrinkage; % F, Compound A vs. Reference CMPD ((Compound A/Reference CMPD) × 100%) [3, 7]: 195%; AUClast, Compound A vs. Reference CMPD ((Compound A/Reference CMPD) × 100%) [3, 7]: 356%; Cmax, Compound A vs. Reference CMPD ((Compound A/Reference CMPD) × 100%) [3, 7]: 495%; AUCfinal of Compound A as % of that of the Reference CMPD ([3]; mouse pharmacokinetic model, relative to Reference CMPD): 356%; % F, Compound A vs. Reference CMPD ((Compound A/Reference CMPD) × 100%) [4, 8]: 208%; AUClast, Compound A vs. Reference CMPD ((Compound A/Reference CMPD) × 100%) [4, 8]: 224%; Cmax, Compound A vs. Reference CMPD ((Compound A/Reference CMPD) × 100%) [4, 8]: 155%; AUCfinal of Compound A as % of that of the Reference CMPD ([4]; rat pharmacokinetic model, relative to Reference CMPD): 224%; CD38+/CD11b+ “M1” Macrophages (B16F10 cells [5]): increase; TIM3+/PD1+ T cells (B16F10 cells [5]): increase
O=C1CN(c2c(O)cc3ccc(OC(F)F)nc3c2F)S(=O)(=O)N1 [Compound 197]	≤ 1000 nM	≤ 1000 nM	196%	436%	activation at 3 µM [6]: > 10%
CC(C)CCOc1cc2c(F)c(N3CC(=O)NS3(=O)=O)c(O)cc2n(C)c1=O [Compound 136, 5-(5-fluoro-7-hydroxy-3-(isopentyloxy)-1-methyl-2-oxo-1,2-dihydroquinolin-6-yl)-1,2,5-thiadiazolidin-3-one 1,1-dioxide]	≤ 1000 nM	≤ 1000 nM	131%		
O=C1CN(c2c(O)cc3c(cc(NC4CCCC4)c(=O)n3C3CC3)c2F)S(=O)(=O)N1 [Compound 185]	≤ 1000 nM	≤ 1000 nM	181%		
